Source: patent publication US9326506B2, “Preparation method, agricultural composition and applications of natural brassinolide analogs” (CHENGDU NEWSUN CROPSCIENCE CO., LTD, priority 2012, dated 2016)

Test system: soybean
Experiment: Farmland test on soybean (germination, height, fresh weight, dry weight)
Format: in vivo
Details: relative to the negative control (pure water)
Experimental: BR1, BR2, BR3, BR4, BR5 and BR6 were mixed into a mixture of brassinolide analogues (referred to as “BRs”, in which the weight ratio of BR1:BR2:BR3:BR4:BR5:BR6 is 0.4:0.4:0.4:0.4:0.4:98). pure water was used as a negative control, while chemically synthesized homobrassinolide (purchased from Yunda Technology Co., Ltd.) was used as a positive control. Respectively BRs and the positive control were diluted to the concentrations of 1 ppm, 0.5 ppm, 0.1 ppm, 0.05 ppm, 0.01 ppm, 0.005 ppm, 0.001 ppm, 0.0005 ppm and 0.0001 ppm. The subjects for the experimentation are soybean seeds in an experimental farmland. We sowed the soybean seeds on 9th July, surveyed the germination on 22nd July, 23rd July and 24th July, and measured the height on 5th September […].

With `CC[C@@H](C(C)C)[C@H](O)[C@@H](O)[C@@H](C)[C@H]1CC[C@H]2[C@@H]3COC(=O)[C@H]4C[C@H](O)[C@H](O)C[C@]4(C)[C@H]3CC[C@]12C` [homobrassinolide] the “Effects on germination, height, fresh weight and dry weight of soybean” value was “positive and different effects”.
